Results as given in a melting point compilation (Tetko et al.; mined from patent text by program, amines drawn as free bases though some values may be those of a salt).

Structure (SMILES)	melting point [°C]
CC(Br)C(=O)Nc1ccc(Cl)cc1NC1CC1 (racemic)	130
CC1(CCS)C(=O)N2CCCC(C(=O)O)N2C1=O (stereo unspecified)	165 to 168
Cc1ccc(C)c(NC(=O)CN2CCN(c3ncccc3C#N)CC2)c1	106 to 108
Nc1sc(-c2cccs2)c(CN(C2CCCCC2)C2CCCCC2)c1C(=O)c1ccc(Cl)cc1	197 to 199
Cc1c(NC(=O)c2cc3c(s2)C2CCC3C2)cccc1-c1cn(C)c(=O)c(Nc2ccc(C3C(=O)N(C)CCN3C)cc2)n1 (stereo unspecified)	178 to 179
O=C(Nc1ccc(C(=O)N2CCCc3cc(F)ccc32)cc1)c1cc(Cl)cc(Cl)c1	206
C#CCS(=O)c1c(O)cc(C)oc1=O (stereo unspecified)	134
O=S(=O)(CCl)c1c(Cl)nc(Cl)nc1Cl	152 to 153
COc1cc2cccnc2c(N2CCN([C@H]3CC[C@@H](c4cn(C)c5ccc(C#N)cc54)CC3)CC2)n1	230 to 233
CN1CC=C(c2c[nH]c3ccc([N+](=O)[O-])cc23)C(F)C1 (stereo unspecified)	94 to 96
CC(CS(=O)(=O)c1ccccc1)C1CCC2C3CC=C4C(C)(C)C(O)CCC4(C)C3CCC12C (stereo unspecified)	176 to 181
CC(C)Oc1cc(-c2cn(C)c(C(F)(F)F)cc2=O)c(F)cc1Cl	150 to 151
C#CCN1C(=O)N(c2ccc(C#N)c(C(F)(F)F)c2)C(=O)C1(CF)CF	126 to 127
O=C(NCCO)/C(=C/c1ccc(OCC(F)(F)F)cc1)NC(=O)c1ccc(OCCC2CC2)cc1	173 to 175
Cc1ccc2c(c1)C(=O)CCC21CCC(=O)N(C)C1=O (stereo unspecified)	146 to 148
Cc1ccc2nc(NC(=N)N)[nH]c2c1C	122 to 124
COC(=O)c1cc(COS(C)(=O)=O)cc([N+](=O)[O-])c1	96 to 97
CSC1=C(Sc2ccc(C)cc2)CC2C3CCC4=CC(=O)C=CC4(C)C3(F)C(O)CC12C (stereo unspecified)	205 to 206
CCCCCCCCCCCCc1ccc(NC(C)=O)cc1	100 to 102
CC1CCOP(C)(=O)C1 (stereo unspecified)	78 to 83
COc1ccc(CCCl)cc1O	53 to 54
OCC1OC(Oc2ccsc2Cc2ccc(OC(F)(F)F)cc2)C(O)C(O)C1O (stereo unspecified)	144 to 145
CCCCCCCCCCCC(=O)OC[C@H]1OCC(=NO)[C@@H](O)[C@@H]1O	90 to 101
Cc1cc([N+](=O)[O-])ccc1NC(=O)C1=C(O)N(C)S(=O)(=O)c2cscc21	186 to 188
CS(=O)c1ccc(CSc2nnc(-c3ccc4c(c3)CCO4)o2)cc1C(F)(F)F (stereo unspecified)	177 to 178
Cc1ccc(C2(O)c3c(C)c(N)c(C)c(C)c3OC2(C)C)cc1 (stereo unspecified)	165 to 166
CCCCCCC(C)(C)c1ccc(C2=CCCC3(C2)OCCO3)c(O)c1	97 to 98

Structure (SMILES)	melting point [°C]
CS(=O)(=O)c1nc(Cl)c(-c2c(F)cc(F)cc2F)c(N2CCCO2)n1	210 to 219
OCc1cnc2n1-c1ccc(Cl)cc1C(c1ccccc1)=NC2	210 to 213
CC1=CC(=O)C(C)=C2CC(C)(C)N=C12	107 to 109
CC(=O)N1N=C(c2ccc([N+](=O)[O-])cc2)c2cc(Br)ccc2CC1C (stereo unspecified)	228 to 230
COc1ccc(CCN(C)C)c2nn[nH]c12	176 to 180
O=C(c1ccnc(Cl)c1)N1CC(c2ccc(F)cc2)C2(CCN(C/C=C/c3ccc(Cl)cc3)CC2)C1 (stereo unspecified)	79 to 81
Cc1ccc(S(=O)(=O)OC[C@H]2CN(c3ccc(N4CCSCC4)c(F)c3)C(=O)O2)cc1	141
CN1C(=O)CN=C(c2ccccn2)c2cc(C#C[Si](C)(C)C)ccc21	194 to 195
COc1cc2nc(N)nc(-c3ccc(Br)cc3CO)c2cc1OC	222 to 223
O=C(NCCCCN1CCC(c2ccc3ccccc3c2)CC1)c1ccc(NC(=O)c2ccc(Cl)cc2)cc1	270
CNc1nc(C)c(C(=O)c2sc(NC)nc2C)s1	184 to 185
CCOP(=O)(OCC)SCS(=O)C(C)(C)C (stereo unspecified)	34.5 to 36
O[C@@H]1CCC(c2ccccc2)(c2ccccc2)[C@@H]2CN(Cc3ccccc3)C[C@H]12	154
COC(=O)c1ccc(Cn2c(C=Cc3ccc(OC)c(OC)c3)nc3c(OC)c(C)c(C)c(OC)c32)cc1	111 to 114
Cc1cccc2c(Nc3cccc(OCCCCN(CCCl)CCCl)c3)c3cccc(C(=O)NCCN(C)C)c3nc12	131 to 132
C[C@@H](n1cnc2cc(F)ccc2c1=O)[C@](O)(Cn1cncn1)c1ccc(F)cc1F	106 to 107
CCCC(O)c1ccc(Cl)c2nc3n(c12)CCCN3c1ccc(Cl)cc1Cl (stereo unspecified)	220 to 221
Cn1cncc1C(N)(c1ccc(C#N)cc1)c1ccc2c(c1)c(-c1cccc(Cl)c1)cc(=O)n2C (stereo unspecified)	245
CC(=O)OC(C)C1CCC2C3CC=C4C=CCCC4(C)C3CCC12C (stereo unspecified)	103 to 104
Nc1cc(Cl)c(Cl)cc1-n1cccc1	57 to 58
CCCCCC(Oc1ccc(C2=CCCCC2)cc1)C(=O)NC(C)C (stereo unspecified)	86 to 88
Cn1ccc2ccc(CO)cc21	47 to 49
Cc1cc(=O)c(-c2ccc(F)cc2)c(C)[nH]1	> 250
CCCCn1c(=O)c2cc(C(=O)OCC)cn2c2cc(Cl)ccc21	172 to 174
O=S(=O)(NC[C@@H](CO)NC(c1ccccc1)(c1ccccc1)c1ccccc1)c1ccc(Oc2ccccc2)cc1	67 to 70
Cc1nnc(-c2ccc3ncn(-c4ccc(OC(F)(F)F)c(Cl)c4)c3c2)o1	211 to 212
CN1CCSC1=NCN1C(=O)CCC1=O	142 to 144

Further lines, results first:

melting point [°C]	Structure (SMILES)
210	Cc1cc2ccccc2cc1C1CC(=O)C=C(O)C1 (stereo unspecified)
56 to 57	CCOC(=O)C(Cc1cc(C)cc(OC(F)(F)C(F)F)c1)C(=O)c1ccc(F)cc1 (stereo unspecified)
75 to 79	COC(=O)C(C#N)CC(=O)c1ccc(Cl)cc1 (stereo unspecified)
174 to 176	O=C1[C@H]2CCC[C@H]2Nc2cc([N+](=O)[O-])ccc2N1Cc1ccccc1 (relative stereo)
186 to 188	CCCCc1nc2cccc(O)c2n1Cc1ccc(-c2ccccc2-c2nnn[nH]2)cc1
93 to 94	COc1ccc(CC(=O)NC(NC(=NC#N)Nc2cc(C)ccc2C)C(C)(C)C)cc1OC (stereo unspecified)
61 to 61.5	COC(=O)c1ccc(OCCCc2ccccc2)cc1
161 to 162	CCCOc1ccccc1-c1nc2c(C(=O)NCC)cccc2c(=O)[nH]1
218 to 219	O=C(O)Cc1nc(-c2ccc(Cl)cc2)oc1-c1ccsc1
100 to 105	CC#CCOc1ccc(OCC(=O)NO)cc1
131 to 133	CC1(C)CCC(C)(C)c2cc(Oc3ccc4c(CO)cccc4c3)ccc21
263 to 265	Cn1ncnc1COc1nn2c(-c3ccccc3)nnc2cc1-c1ccco1
149	CCC(CC)CC(C)(NC(CO)c1ccccc1)C(=O)O (stereo unspecified)
164	CC(C)(C)OC(=O)NC(C)(C)c1ccc(-c2nc(Nc3cccc(CCO)c3)ncc2C#N)cc1
220 to 225	C#CCc1c(-c2ccccc2)nc(C)[nH]c1=O
160 to 161	O=C(O)c1cc(Cl)cc([N+](=O)[O-])c1NCc1ccccc1Cl
74 to 75.5	Clc1ccc(OCc2ccccc2)c(OCc2ccccc2)c1Cl
122 to 124	CCOc1cc(C(=CC#N)c2ccc(OC)c(F)c2)ccc1OC
228 to 229	O=c1oc(-c2ccccc2)cc(O)c1Sc1cccc(C(F)(F)F)c1
127 to 130	Cc1cn(-c2cc3nc(NN)c(=O)n(OCc4ccccc4)c3cc2C(F)(F)F)c(-c2ccccc2)n1
196	NC(=O)C(Nc1ccccc1C(=O)C1CC1)c1c(Cl)cccc1Cl (stereo unspecified)
149 to 151	COCCc1nc2c(N)nc3ccccc3c2n1CCCNS(=O)(=O)c1ccccc1
181 to 183	COc1cccc(-c2c(C3CCN(C)CC3)[nH]c(=O)c3ccccc23)c1
208 to 210	CN1CCN(c2cc(Cl)cc3[nH]c(=O)n(Cc4ccccc4)c(=O)c23)CC1

melting point [°C]	Structure (SMILES)
> 300	CC(=O)Nc1cccc2c1C(=O)c1c-2n[nH]c1-c1ccc(O)cc1
123 to 125	COc1ccc2cc(-c3cccc(C=O)c3)cc(CCNC(C)=O)c2c1
183 to 185	O=C1CN(S(=O)(=O)c2ccccc2)c2ccccc2N1
125 to 126	O=[N+]([O-])c1cccn2nc(SCc3ccccc3)nc12
90 to 93	O=c1c2cccc3c2n(c(=O)n1CCO)-c1cc(C(F)(F)F)ccc1S3
250 to 252	Cc1cn(C2CC(O)C(CNC(=O)c3ccc(Br)cc3)O2)c(=O)[nH]c1=O (stereo unspecified)
183 to 184	CC(C)(Oc1ccc(NC(=O)Nc2ccc(Cl)c(Cl)c2)cc1)C(=O)O
72 to 74	COc1ccc2cccc(CO)c2c1
76.5 to 80	CC(C)(C)OC(=O)NC1CCN(CC23CC(c4ccccc42)c2ccc(Cl)cc23)CC1 (stereo unspecified)
245 to 247	O=C1Nc2ccccc2N(C(=O)C2CC2)c2cscc21
202 to 204	COC(=O)c1c(-c2ccccc2)[nH]c(-c2ccncc2)c1C
124 to 125	COC(=O)Cc1cccc2c1Sc1ccccc1S2
160 to 163	Oc1ccc(C(c2ccc(O)cc2)c2ccccc2CN2CCCc3ccccc32)cc1
123 to 126	O=C(O)CNC(=O)c1cccc2c(-c3ccccc3)c([N+](=O)[O-])oc12
106 to 108	CCc1ccc(-c2ccc(C(=O)c3ccccc3)cc2)cc1
232 to 234	Cc1cccc(C)c1NC(=O)c1ccc(O)cc1
170 to 172	O=C(O)COc1ccc(SCc2ccc(OCc3ccc(Cl)cc3)cc2)c2c1CCC2
53 to 55	O=C(CCCC1CCN(Cc2ccccc2)CC1)c1ccc(F)cc1
146 to 147	O=C(CCCC(Cl)=C(C(=O)O)c1csc(NC(=O)OCc2ccccc2)n1)OCc1ccccc1
144 to 146	CCSc1ccc2c3c(cccc13)C(=O)N2
72	COc1ccc2c(c1)C1Cc3ccccc3C1N2C (stereo unspecified)
70 to 71	CCC(=O)c1ccc(OC(C)c2ccc(Cl)cc2)cc1 (stereo unspecified)
185 to 187	Cn1c(SC(C(N)=O)c2ccccc2)nc2ccccc21 (stereo unspecified)
